Results: patent US5298488A, “CM-chitin derivatives and use thereof” (Fuji Photo Film Co., Ltd., priority 1990, dated 1994)
No end group written: not given here. sulfated succinylated CM‑chitin = sulfated succinylated CM-chitin; trimellityl CM‑chitin = trimellityl derivative of CM-chitin

Tests used:
vitronectin = assay: Cell adhesion-inhibitory test against vitronectin (competitive assay, number of adhered cells); format: cell-based, human; details: endothelium cells of blood vessel, 37° C., one hour, 0 control 249
Description: (§1) A method for determining the activity of the CM-chitin derivatives of the present invention for inhibiting adhesion of cells to fibronectin or vitronectin will be described below. The competitive assays used herein have widely been employed tin the field of biochemistry and are detailed in, for instance, "Method in Enzymology", 1981, 82, pp. 803-831; and J. P. KOKAI Nos. Hei 1-309682 and Hei 2-174797.
(§2) Commercially available fibroneotin (derived from human; purchased from Seikaqaku Kogyo K. K.) and vitronectin (derived from human; purchased from Funakoshi Co., Ltd.) each was diluted to 1.0 μ1/ml and 2.0 μ1/ml with PBS (NaH2 PO4 0.005 M+NaCl 0.07 M), 0.5 ml of the resulting diluted solution was dispensed into a plastic plate having 24 wells and incubated at 37° C. overnight to perform coating of the plate. Then bovine serum albumin (BSA 1%) was added followed by incubation at 37° C. for one hour for inhibiting the occurrence of nonspecific adsorption, then washing with PBS in the usual manner and sufficient drainage to give an adsorption plate.
[…] Each of the solutions (0.25 ml) was dispensed to the plate prepared above, 0.25 ml of a suspension of endothelium cells of blood vessel (4×10^6 cells/ml) was added to the plate and incubated at 37° C. for one hour to thus cause cohesion of the cells. The plate was washed three times with DMEM medium to remove non-adhesive cells, then the adhered cells were peeled off with a 0.025% EDTA trypsin solution and stained with a 2% Trypan Blue solution to determine the number of the adhered cells.

[1] = system: human plasma rich in platelet; assay: Platelet coagulation-inhibitory activity in vitro, transmittance by aggregometer; format: cell-based; details: 37° C., 3 minutes preincubation; for Platelet Coagulation-Inhibitory Action IC50, ADP Stimulation: ADP stimulation (50 μM ADP solution); for Platelet Coagulation-Inhibitory Action IC50, Collagen Stimulation: collagen stimulation (200 μg/ml collagen solution)
Procedure: The platelet coagulation-inhibitory effect of the CM-chitin derivative of the present invention was assayed, in vitro, using human plasma rich in platelet. The experimental method will be described below.
To fresh human blood, there was added 1/9 volume of a 3.8% sodium citrate solution, the resulting mixture was centrifuged (1000 rpm; for 10 minutes) and the upper layer was separated as a plasma rich in platelet. A lyophilized CM-chitin derivative was dissolved in physiological saline to give a plurality of solutions having various concentrations ranging from 0 to 1.5 mg/ml. Each of the solutions (25 μ1) was added to 200 µl of the plasma, incubated at 37° C. for 3 minutes, then a 50 μM of ADP (adenosine diphosphate) solution or a 200 μg/ml collagen solution was added to determine the extent of coagulation in terms of transmittance determined by an aggregometer.
Rate of Coagulation Inhibition=(1-T/T .)×100%
T . : transmittance observed when a salt of CM-chitin derivative was not added.
T : transmittance observed when a salt of CM-chitin derivative was added.

fibronectin = assay: Cell adhesion-inhibitory test against fibronectin (competitive assay, number of adhered cells); format: cell-based, human; details: endothelium cells of blood vessel, 37° C., one hour, 0 mg/ml control 160
Description: as §1, §2
A CM-chitin derivative obtained through lyophilization was diluted with Dulbecco's Modified Eagles Medium (hereunder referred to as "DMEM") to give solutions of the CM-chitin derivative having concentrations of 0, 0.25, 0.5, 1.0 and 1.5 mg/ml respectively. Each of the solutions (0.25 ml) was dispensed to the plate prepared above, 0.25 ml of a suspension of endothelium cells of blood vessel (4×10^6 cells/ml) was added to the plate and incubated at 37° C. for one hour to thus cause cohesion of the cells. The plate was washed three times with DMEM medium to remove non-adhesive cells, then the adhered cells were peeled off with a 0.025% EDTA trypsin solution and stained with a 2% Trypan Blue solution to determine the number of the adhered cells.

[2] = concentration 10 mg/ml (so in the source)
[3] = concentration 50 mg/ml (so in the source)
[4] = concentration 100 mg/ml (so in the source)
[5] = concentration 300 mg/ml (so in the source)

Substance | Cell Adhesion-Inhibitory effect Against Vitronectin (number of adhered cells) (vitronectin; [2]) | Cell Adhesion-Inhibitory effect Against Vitronectin (number of adhered cells) (vitronectin; [3]) | Cell Adhesion-Inhibitory effect Against Vitronectin (number of adhered cells) (vitronectin; [4]) | Cell Adhesion-Inhibitory effect Against Vitronectin (number of adhered cells) (vitronectin; [5]) | Platelet Coagulation-Inhibitory Action IC50, ADP Stimulation [1] | Platelet Coagulation-Inhibitory Action IC50, Collagen Stimulation [1] | Cell Adhesion-Inhibitory effect Against Fibronectin (number of adhered cells) (fibronectin; concentration 0.5 mg/ml) | Cell Adhesion-Inhibitory effect Against Fibronectin (number of adhered cells) (fibronectin; concentration 1.0 mg/ml) | Cell Adhesion-Inhibitory effect Against Fibronectin (number of adhered cells) (fibronectin; concentration 1.5 mg/ml) | Cell Adhesion-Inhibitory effect Against Fibronectin (number of adhered cells) (fibronectin; concentration .25 mg/ml)
Sulfated Succinylated CM-Chitin-Gly-Arg-Gly-Asp-Ser ({sulfated succinylated CM‑chitin}-GRGDS) [CM--chitin derivative-16] | 122 cell/well | 81 cell/well | 63 cell/well | 40 cell/well | 12 µg/mL | 2 µg/mL | 81 cell/well | 75 cell/well | 50 cell/well | 103 cell/well
Trimellityl Derivative of CM-Chitin Arg-Gly-Asp-Ser ({trimellityl CM‑chitin}-RGDS) [CM--chitin derivative-6] | 133 cell/well | 98 cell/well | 71 cell/well | 56 cell/well | 26 µg/mL | 11 µg/mL | 107 cell/well | 93 cell/well | 66 cell/well | 127 cell/well
